# Target: T1, ASIC1a (Homo sapiens, UniProt P78348)
# T1 sequence (P78348 1-528): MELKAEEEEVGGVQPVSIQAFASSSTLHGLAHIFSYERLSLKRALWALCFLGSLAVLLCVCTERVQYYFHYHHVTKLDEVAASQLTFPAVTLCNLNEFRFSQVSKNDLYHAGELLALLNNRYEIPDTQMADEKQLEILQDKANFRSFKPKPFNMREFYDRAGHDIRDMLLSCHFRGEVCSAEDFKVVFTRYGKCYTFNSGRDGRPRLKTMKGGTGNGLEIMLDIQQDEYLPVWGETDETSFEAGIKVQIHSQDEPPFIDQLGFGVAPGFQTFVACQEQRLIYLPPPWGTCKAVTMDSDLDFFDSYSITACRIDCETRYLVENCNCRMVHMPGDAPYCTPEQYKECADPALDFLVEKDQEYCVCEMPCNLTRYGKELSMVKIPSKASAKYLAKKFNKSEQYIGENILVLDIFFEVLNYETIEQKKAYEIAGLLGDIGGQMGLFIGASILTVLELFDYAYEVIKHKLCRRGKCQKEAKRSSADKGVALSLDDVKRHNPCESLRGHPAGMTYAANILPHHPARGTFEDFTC
# Assay: Calcium-imaging (FLIPR) of MES-induced calcium response in ASIC1a expressing HEK293 cells
# Assay type: cell-based
# Parameters: host or cells: HEK293
# Experimental: Identification of ASIC Antagonists Using Calcium-Imaging
# ASIC1a expressing HEK293 cells are grown in culture medium (DMEM with 10% FBS), in polystyrene culture flasks (175 mm 2) at 37° C. in a humidified atmosphere of 5% CO2. Confluency of cells should be 80-90% on day of plating. Cells are rinsed with 10 ml of PBS and cells are re-suspended by addition of culture medium and trituration with a 25 ml pipette.
# The cells are seeded at a density of approximately 1×10^6 cells/ml (100 μl/well) in black-walled, clear bottom, 96-well plates pre-treated with 10 mg/l poly-D-lysin (75 μl/well for ≧30 min). Plated cells are allowed to proliferate for 24 h before loading with dye.
# Loading with Fluorescent Calcium Dye Fluo-4/AM
# Fluo-4/AM (1 mg, Molecular Probes) is dissolved in 912 μl DMSO. The Fluo-4/AM stock solution (1 mM) is diluted with culture medium to a final concentration of 2 μM (loading solution).
# The culture medium is aspirated from the wells, and 50 μl of the Fluo-4/AM loading solution is added to each well. The cells are incubated at 37° C. for 30 min.
# After the loading period, the loading solution is aspirated and the cells are washed twice with 100 μl modified Assay Buffer (145 mM NaCl, 5 mM KCl, 5 mM CaCl2, 1 mM MgCl2, 10 mM HEPES, pH 7.4) to remove extracellular dye. Following the second wash, 100 μl modified Assay Buffer is added to each well and the fluorescence is measured in FLIPR™ or FlexStation™ (Molecular Devices, USA), or any other suitable equipment known to the skilled in the art.
# Temperature: Room temperature (20-22° C.)
# First addition: 50 μl test solution at a rate of 30 μl/sec and a starting height of […]
# Second addition: 50 μl MES solution (20 mM, 5 mM final concentration) at a rate of 35 μl/sec and a starting height of 150 μl.
# Reading intervals: pre-incubation—10 sec×7 and 3 sec×3 antagonist phase—3 sec×17 and 10 sec×12
# Addition plates (compound test plate and MES plate) are placed on the right and left positions in the FLIPR tray, respectively. Cell plates are placed in the middle position and the ASIC1a program is effectuated. FLIPR will then take the appropriate measurements in accordance with the interval settings above. Fluorescence obtained after stimulation is corrected for the mean basal fluorescence (in modified Assay Buffer).
# Hit Confirmation and Characterization of Active Substances
# The MES-induced peak calcium response, in the presence of test substance, is expressed relatively to the MES response alone. Test substances that block the MES-induced calcium response are re-tested in triplicates. […]
structure (smiles),measurement,value
CCN1CCc2c(-c3cc(Cl)ccc3OC)cc(C#N)c(N)c2C1 [Compound 44],IC50,< 10 µM

# Source: patent publication US20080004282A1, “Compositions and methods for modulating gated ion channels” (PainCeptor Pharma Corporation, priority 2006, published 2008)
